Results published in the NIST ThermoML archive (doi:10.1021/je034279l).

Key:
[1] = xn = mol fraction of the nth substance listed; settings: 298.15 K; for surface tension liquid-gas: Pendant drop shape; for excess molar volume: 101 kPa, Liquid
[2] = 298.15 K; for surface tension liquid-gas: Pendant drop shape; for mass density: 101.33 kPa, Liquid

Cc1ccccc1C [1,2-dimethylbenzene] + COC(C)(C)C
[1]
Settings	surface tension liquid-gas [mN/m]
x2 = 0.0997	27.9
x2 = 0.1996	26.62
x2 = 0.3012	25.28
x2 = 0.4008	24.14
x2 = 0.4997	23.12
x2 = 0.6012	22.17
x2 = 0.7002	21.3
x2 = 0.8	20.57
x2 = 0.8999	19.78

Cc1ccccc1C [1,2-dimethylbenzene] + CC(C)OC(C)C
[1]
Settings	excess molar volume [m3/mol]	surface tension liquid-gas [mN/m]
x2 = 0.0506	-1.77e-07	–
x2 = 0.0997	-3.15e-07	–
x2 = 0.1022	–	27.21
x2 = 0.1501	-4.49e-07	–
x2 = 0.2003	-5.74e-07	–
x2 = 0.201	–	25.55
x2 = 0.2503	-6.91e-07	–
x2 = 0.3003	-7.82e-07	–
x2 = 0.3018	–	24.17
x2 = 0.35	-8.39e-07	–
x2 = 0.4004	-8.83e-07	–
x2 = 0.4037	–	23.01
x2 = 0.4497	-9.22e-07	–
x2 = 0.4997	–	22
x2 = 0.505	-9.36e-07	–
x2 = 0.5505	-9.48e-07	–
x2 = 0.5998	–	21.03
x2 = 0.6001	-9.1e-07	–
x2 = 0.6509	-8.82e-07	–
x2 = 0.7	-8.11e-07	–
x2 = 0.7013	–	20
x2 = 0.7502	-7.47e-07	–
x2 = 0.7987	–	19.15
x2 = 0.7999	-6.31e-07	–
x2 = 0.8502	-5.11e-07	–
x2 = 0.8987	–	18.08
x2 = 0.8997	-3.69e-07	–
x2 = 0.9493	-2.1e-07	–

Cc1ccc(C)cc1 [1,4-dimethylbenzene]
[2]
Settings	mass density [kg/m3]	surface tension liquid-gas [mN/m]
–	856.85	27.89

Cc1cccc(C)c1 [1,3-dimethylbenzene]
[2]
Settings	mass density [kg/m3]	surface tension liquid-gas [mN/m]
–	859.78	28.36

CC(C)OC(C)C [diisopropyl ether]
[2]
Settings	mass density [kg/m3]	surface tension liquid-gas [mN/m]
–	718.38	17.31

COC(C)(C)C [2-methoxy-2-methylpropane] + Cc1ccc(C)cc1
[1]
Settings	surface tension liquid-gas [mN/m]
x1 = 0.1008	26.85
x1 = 0.1998	25.81
x1 = 0.3012	24.78
x1 = 0.4026	23.84
x1 = 0.4997	22.96
x1 = 0.6004	22.08
x1 = 0.6993	21.24
x1 = 0.8	20.48
x1 = 0.9002	19.78

Cc1cccc(C)c1 [1,3-dimethylbenzene] + CC(C)OC(C)C
[1]
Settings	excess molar volume [m3/mol]	surface tension liquid-gas [mN/m]
x2 = 0.0514	-1.35e-07	–
x2 = 0.1002	-2.42e-07	–
x2 = 0.1019	–	26.38
x2 = 0.1526	-3.55e-07	–
x2 = 0.1997	-4.41e-07	–
x2 = 0.2111	–	24.88
x2 = 0.2501	-5.2e-07	–
x2 = 0.3002	-5.79e-07	23.72
x2 = 0.3498	-6.37e-07	–
x2 = 0.3999	–	22.67
x2 = 0.4001	-6.7e-07	–
x2 = 0.4516	-7.11e-07	–
x2 = 0.4991	–	21.73
x2 = 0.5012	-7.15e-07	–
x2 = 0.5509	-7.18e-07	–
x2 = 0.6001	-6.92e-07	–
x2 = 0.6006	–	20.86
x2 = 0.65	-6.71e-07	–
x2 = 0.6944	-6.17e-07	–
x2 = 0.6994	–	19.91
x2 = 0.7498	-5.58e-07	–
x2 = 0.7998	–	19.02
x2 = 0.8005	-4.77e-07	–
x2 = 0.8506	-3.93e-07	–
x2 = 0.8981	–	18.12
x2 = 0.8998	-2.83e-07	–
x2 = 0.95	-1.64e-07	–

COC(C)(C)C [2-methoxy-2-methylpropane]
[2]
Settings	mass density [kg/m3]	surface tension liquid-gas [mN/m]
–	735.48	19.25

CC(C)OC(C)C [diisopropyl ether] + Cc1ccc(C)cc1
[1]
Settings	excess molar volume [m3/mol]	surface tension liquid-gas [mN/m]
x1 = 0.0527	-1.36e-07	–
x1 = 0.0988	–	26.3
x1 = 0.1016	-2.79e-07	–
x1 = 0.15	-3.98e-07	–
x1 = 0.2011	-5.1e-07	–
x1 = 0.2012	–	24.84
x1 = 0.2527	-5.88e-07	–
x1 = 0.2991	–	23.73
x1 = 0.3004	-6.58e-07	–
x1 = 0.3509	-7.3e-07	–
x1 = 0.4007	-7.61e-07	–
x1 = 0.4045	–	22.68
x1 = 0.4506	-7.85e-07	–
x1 = 0.5044	-8.02e-07	–
x1 = 0.5096	–	21.66
x1 = 0.5507	-7.95e-07	–
x1 = 0.6002	-7.87e-07	–
x1 = 0.603	–	20.76
x1 = 0.6498	-7.56e-07	–
x1 = 0.7	–	19.91
x1 = 0.7007	-7.02e-07	–
x1 = 0.7497	-6.25e-07	–
x1 = 0.7987	–	19.02
x1 = 0.7999	-5.37e-07	–
x1 = 0.8512	-4.32e-07	–
x1 = 0.898	–	18.18
x1 = 0.9	-3.18e-07	–
x1 = 0.9507	-1.78e-07	–

Cc1cccc(C)c1 [1,3-dimethylbenzene] + COC(C)(C)C
[1]
Settings	surface tension liquid-gas [mN/m]
x2 = 0.1019	27.13
x2 = 0.2019	26.05
x2 = 0.3028	24.98
x2 = 0.4014	23.99
x2 = 0.4996	23.01
x2 = 0.6006	22.08
x2 = 0.7009	21.26
x2 = 0.8001	20.49
x2 = 0.9004	19.76

Cc1ccccc1C [1,2-dimethylbenzene]
[2]
Settings	mass density [kg/m3]	surface tension liquid-gas [mN/m]
–	875.92	29.35
